Measurements published in patent publication US8952024B2, “Herbicidal pyrimidone derivatives” (E I du Pont de Nemours and Company, priority 2009, dated 2015).

What was measured:
Type in all cases: in vivo
[1] = system: wheat (Triticum aestivum); experiment: Test A pre-/postemergence plant response
Method in brief: (§1)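 Formulated test chemicals (non-phytotoxic solvent, surfactant) were sprayed onto soil right after planting and simultaneously onto young plants at one to two leaves, 2 to 10 cm tall. Plants stayed in the greenhouse about ten days; injury was then visually scored against untreated controls, from 0 (no effect) to 100 (complete control).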

[2] = system: morningglory (Ipomoea spp.); experiment: Test A pre-/postemergence plant response
Method in brief: as §1

[3] = system: large crabgrass (Digitaria sanguinalis); experiment: Test A pre-/postemergence plant response
Method in brief: as §1

corn (Zea mays) = experiment: Test A pre-/postemergence plant response
Method in brief: as §1

[4] = system: velvetleaf (Abutilon theophrasti); experiment: Test A pre-/postemergence plant response
Method in brief: as §1

[5] = system: giant foxtail (Setaria faberii); experiment: Test A pre-/postemergence plant response
Method in brief: as §1

[6] = system: sunflower (common oilseed sunflower, Helianthus annuus); experiment: Test B pre-/postemergence plant response; conditions: Preemergence; for Sunflower plant response rating: 125 g ai/ha
Method in brief: (§2)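 Visually scored on a 0 to 100 scale after 13 to 15 days in greenhouse versus controls. Treatments were preemergence on seeded loam/sand soil and postemergence on 1- to 4-leaf plants.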

[7] = system: nightshade (eastern black nightshade, Solanum ptycanthum); experiment: Test B pre-/postemergence plant response; conditions: Preemergence; for Nightshade plant response rating: 125 g ai/ha
Method in brief: as §2

[8] = system: galium (catchweed bedstraw, Galium aparine); experiment: Test B pre-/postemergence plant response; conditions: Preemergence; for Galium plant response rating: 125 g ai/ha
Method in brief: as §2

[9] = system: chickweed (Stellaria media); experiment: Test B postemergence plant response; conditions: Postemergence; for Chickweed plant response rating: 250 g ai/ha, scale 0 to 100
Method in brief: (§3)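 Plants at the 1- to 4-leaf stage (2 to 18 cm tall), grown in pots of peat moss/vermiculite medium with wetting agent and starter nutrients, received postemergence applications of test chemicals. After 13 to 15 days in a greenhouse, injury was rated visually against untreated controls on a 0 (no effect) to 100 (complete control) scale.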

[10] = system: winter barley (Hordeum vulgare); experiment: Test B postemergence plant response; conditions: Postemergence; for Barley plant response rating: 250 g ai/ha, scale 0 to 100
Method in brief: as §3

[11] = system: canarygrass (Phalaris minor); experiment: Test B postemergence plant response; conditions: Postemergence; for Canarygrass plant response rating: 250 g ai/ha, scale 0 to 100
Method in brief: as §3

[12] = system: windgrass (Apera spica-venti); experiment: Test B postemergence plant response; conditions: Postemergence
Method in brief: as §3

[13] = system: goosegrass (Eleusine indica); experiment: Test B pre-/postemergence plant response; conditions: Preemergence, 62 g ai/ha; scale 0 to 100, 0 no effect, 100 complete control
[14] = Postemergence, 125 g ai/ha, visual injury, 0 to 100 scale (0 no effect, 100 complete control), approx. ten days
[15] = Postemergence, 500 g ai/ha, 0 to 100 scale, 0 = no effect, 100 = complete control, approx. ten days
[16] = Preemergence, 125 g ai/ha, 0 to 100 scale, 0 = no effect, 100 = complete control
[17] = Preemergence, 500 g ai/ha, visual injury, 0 to 100 scale (0 no effect, 100 complete control), approx. ten days
[18] = 31 g ai/ha, scale 0 to 100 (0 no effect, 100 complete control)
[19] = 62 g ai/ha, scale 0 to 100, 0 no effect, 100 complete control
[20] = 62 g ai/ha, scale 0 (no effect) to 100 (complete control), 13 to 15 days
[21] = 125 g ai/ha, visual rating after 13 to 15 days, scale 0 (no effect) to 100 (complete control)

Cc1cc(F)ccc1-n1c(-c2ccccc2)ncc(C(=O)C2=C(O)CCCC2=O)c1=O [Compound 48]
Wheat plant response rating [1, 14]: 0 | Plant response rating, Wheat [1, 15]: 20 | Plant response rating, Wheat [1, 16]: 0 | Plant response rating, Wheat [1, 17]: 0 | Morningglory plant response rating [2, 14]: 90 | Plant response rating, Morningglory [2, 15]: 100 | Plant response rating, Morningglory [2, 16]: 40 | Plant response rating, Morningglory [2, 17]: 80 | Crabgrass, Large plant response rating [3, 14]: 90 | Plant response rating, Crabgrass, Large [3, 15]: 100 | Plant response rating, Crabgrass, Large [3, 16]: 90 | Plant response rating, Crabgrass, Large [3, 17]: 100 | Corn plant response rating (corn (Zea mays); [14]): 0 | Plant response rating, Corn (corn (Zea mays); [15]): 30 | Plant response rating, Corn (corn (Zea mays); [16]): 0 | Plant response rating, Corn (corn (Zea mays); [17]): 0 | Velvetleaf plant response rating [4, 14]: 100 | Plant response rating, Velvetleaf [4, 15]: 100 | Plant response rating, Velvetleaf [4, 16]: 80 | Plant response rating, Velvetleaf [4, 17]: 100 | Foxtail, Giant plant response rating [5, 14]: 90 | Plant response rating, Foxtail, Giant [5, 15]: 100 | Plant response rating, Foxtail, Giant [5, 16]: 70 | Plant response rating, Foxtail, Giant [5, 17]: 90 | Plant response rating, Sunflower ([6]; 250 g ai/ha, 0 to 100 scale): 80 | Plant response rating, Sunflower [6, 18]: 0 | Sunflower plant response rating ([6]; 0 to 100 scale): 80 | Plant response rating, Nightshade ([7]; 250 g ai/ha, 0 to 100 scale): 100 | Plant response rating, Nightshade [7, 18]: 100 | Plant response rating, Nightshade [7, 19]: 100 | Nightshade plant response rating ([7]; 0 to 100 scale): 100 | Plant response rating, Galium ([8]; 250 g ai/ha, 0 to 100 scale): 70 | Plant response rating, Galium [8, 18]: 0 | Plant response rating, Galium [8, 19]: 60 | Galium plant response rating ([8]; 0 to 100 scale): 60 | Plant response rating, Chickweed [9, 18]: 85 | Plant response rating, Chickweed [9, 20]: 90 | Plant response rating, Chickweed [9, 21]: 95 | Chickweed plant response rating [9]: 100 | Plant response rating, Barley [10, 18]: 5 | Plant response rating, Barley [10, 20]: 5 | Plant response rating, Barley [10, 21]: 10 | Barley plant response rating [10]: 10 | Plant response rating, Canarygrass [11, 18]: 30 | Plant response rating, Canarygrass [11, 20]: 30 | Plant response rating, Canarygrass [11, 21]: 45 | Canarygrass plant response rating [11]: 45 | Plant response rating, Windgrass [12, 20]: 80 | Plant response rating, Windgrass [12, 21]: 90 | Plant response rating, Goosegrass [13]: 100

5-[(1-ethyl-5-hydroxy-1H-pyrazol-4-yl)carbonyl]-2-phenyl-3-(phenylmethyl)-4(3H)-pyrimidinone [Compound 20]
Wheat plant response rating [1, 14]: 0 | Plant response rating, Wheat [1, 15]: 10 | Plant response rating, Wheat [1, 16]: 0 | Plant response rating, Wheat [1, 17]: 0 | Morningglory plant response rating [2, 14]: 80 | Plant response rating, Morningglory [2, 15]: 90 | Plant response rating, Morningglory [2, 16]: 0 | Plant response rating, Morningglory [2, 17]: 100 | Crabgrass, Large plant response rating [3, 14]: 90 | Plant response rating, Crabgrass, Large [3, 15]: 90 | Plant response rating, Crabgrass, Large [3, 16]: 50 | Plant response rating, Crabgrass, Large [3, 17]: 80 | Corn plant response rating (corn (Zea mays); [14]): 0 | Plant response rating, Corn (corn (Zea mays); [15]): 10 | Plant response rating, Corn (corn (Zea mays); [16]): 0 | Plant response rating, Corn (corn (Zea mays); [17]): 0 | Velvetleaf plant response rating [4, 14]: 100 | Plant response rating, Velvetleaf [4, 15]: 100 | Plant response rating, Velvetleaf [4, 16]: 80 | Plant response rating, Velvetleaf [4, 17]: 90 | Foxtail, Giant plant response rating [5, 14]: 30 | Plant response rating, Foxtail, Giant [5, 15]: 60 | Plant response rating, Foxtail, Giant [5, 16]: 0 | Plant response rating, Foxtail, Giant [5, 17]: 10 | Plant response rating, Sunflower ([6]; 250 g ai/ha, 0 to 100 scale): 85 | Plant response rating, Sunflower [6, 18]: 50 | Plant response rating, Sunflower [6, 19]: 70 | Sunflower plant response rating ([6]; 0 to 100 scale): 70 | Plant response rating, Nightshade ([7]; 250 g ai/ha, 0 to 100 scale): 100 | Plant response rating, Nightshade [7, 18]: 50 | Nightshade plant response rating ([7]; 0 to 100 scale): 98 | Plant response rating, Galium ([8]; 250 g ai/ha, 0 to 100 scale): 50 | Plant response rating, Galium [8, 18]: 0 | Plant response rating, Galium [8, 19]: 5 | Galium plant response rating ([8]; 0 to 100 scale): 30 | Plant response rating, Chickweed [9, 18]: 90 | Plant response rating, Chickweed [9, 20]: 98 | Plant response rating, Chickweed [9, 21]: 98 | Chickweed plant response rating [9]: 100 | Plant response rating, Barley [10, 18]: 0 | Plant response rating, Barley [10, 20]: 0 | Plant response rating, Barley ([10]; 125 g ai/ha, scale 0 to 100 (0 no effect, 100 complete control), 13 to 15 days): 0 | Barley plant response rating [10]: 0 | Plant response rating, Canarygrass [11, 18]: 0 | Plant response rating, Canarygrass [11, 20]: 0 | Plant response rating, Canarygrass [11, 21]: 0 | Canarygrass plant response rating [11]: 5 | Plant response rating, Windgrass [12, 18]: 0 | Plant response rating, Windgrass [12, 20]: 0 | Plant response rating, Windgrass [12, 21]: 0 | Windgrass plant response rating ([12]; 250 g ai/ha, scale 0 to 100): 5 | Plant response rating, Goosegrass [13]: 70
